According to patent publication US9113629B2, “4-amino-6-(4-substituted-phenyl)-picolinates and 6-amino-2-(4-substituted-phenyl)-pyrimidine-4-carboxylates and their use as herbicides” (DOW AGROSCIENCES LLC, priority 2013, dated 2015):
Read-outs that look alike come from different tables or passages of the source.

Assays:
[1] = tested on: Key Broadleaf Weed and Crop Species; assay: Post-emergent Test II herbicidal activity (Table 5); type: in vivo; conditions: post-emergence, 336 h, 14 days after application
Outline: (§1)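 Percent injury, 0 (none) to 100 (complete kill), was judged visually 14 d after spraying young plants at the first or second true leaf stage with compound in an acetone/DMSO aqueous carrier at 187 L/ha. Plants were kept in a greenhouse at 23–29 °C by day.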

[2] = tested on: Key Grass and Sedge Weeds as well as Grass Crops; assay: Post-emergent Test II herbicidal activity (Table 6); type: in vivo; conditions: post-emergence, 336 h; for pest or weed control at 70 g/ha: application rate 70 g ai/ha; for pest or weed control at 140 g/ha: application rate 140 g ai/ha
Outline: as §1

[3] = Triticum aestivum, TRZSS (wheat), read-out: Visual Growth Reduction (%) 14 Days After Application, TRZSS
[4] = CYPES: yellow nutsedge (Cyperus esculentus), read-out: Visual Growth Reduction (%) 14 Days After Application, CYPES
[5] = DIGSA: crabgrass (Digitaria sanguinalis), read-out: Visual Growth Reduction (%) 14 Days After Application, DIGSA
[6] = ORYSA: rice (Oryza sativa), read-out: Visual Growth Reduction (%) 14 Days After Application, ORYSA
[7] = SORVU: grain sorghum (Sorghum vulgare), read-out: Visual Growth Reduction (%) 14 Days After Application, SORVU
[8] = ZEAMX: maize, corn (Zea mays), read-out: Visual Growth Reduction (%) 14 Days After Application, ZEAMX
[9] = ABUTH: velvetleaf (Abutilon theophrasti), 140 g ai/ha, post-emergent, read-out: Visual Growth Reduction (%) 14 Days After Application ABUTH
[10] = AMARE: redroot pigweed (Amaranthus retroflexus), 140 g ai/ha, post-emergent, read-out: Visual Growth Reduction (%) 14 Days After Application AMARE
[11] = BRSNN: oilseed-rape, canola (Brassica napus), 140 g ai/ha, post-emergent, read-out: Visual Growth Reduction (%) 14 Days After Application BRSNN
[12] = CHEAL: lambsquarters (Chenopodium album), 140 g ai/ha, post-emergent, read-out: Visual Growth Reduction (%) 14 Days After Application CHEAL
[13] = EPHHL: wild poinsettia (Euphorbia heterophylla), 140 g ai/ha, post-emergent, read-out: Visual Growth Reduction (%) 14 Days After Application EPHHL
[14] = HELAN: sunflower (Helianthus annuus), 140 g ai/ha, post-emergent, read-out: Visual Growth Reduction (%) 14 Days After Application HELAN
[15] = VIOTR: wild pansy (Viola tricolor), 140 g ai/ha, post-emergent, read-out: Visual Growth Reduction (%) 14 Days After Application VIOTR
[16] = ECHCG: barnyardgrass (Echinochloa crus-galli), read-out: Visual Growth Reduction (%) 14 Days After Application, ECHCG
[17] = SETFA: giant foxtail (Setaria faberi), read-out: Visual Growth Reduction (%) 14 Days After Application, SETFA
[18] = TRZSS (wheat, Triticum aestivum), read-out: Visual Growth Reduction (%) 14 Days After Application, TRZSS

Structure (SMILES)	pest or weed control at 140 g/ha [2, 3] [%]	pest or weed control at 70 g/ha [2, 4] [%]	pest or weed control at 140 g/ha [2, 4] [%]	pest or weed control at 70 g/ha [2, 5] [%]	pest or weed control at 140 g/ha [2, 5] [%]	pest or weed control at 70 g/ha [2, 6] [%]	pest or weed control at 140 g/ha [2, 6] [%]	pest or weed control at 70 g/ha [2, 7] [%]	pest or weed control at 140 g/ha [2, 7] [%]	pest or weed control at 70 g/ha [2, 8] [%]	pest or weed control at 140 g/ha [2, 8] [%]	melting point [°C]	pest or weed control at 140 g/ha [1, 9] [%]	pest or weed control at 140 g/ha [1, 11] [%]	pest or weed control at 140 g/ha [1, 12] [%]	pest or weed control at 140 g/ha [1, 13] [%]	pest or weed control at 140 g/ha [1, 14] [%]	pest or weed control at 140 g/ha [1, 15] [%]	pest or weed control at 140 g/ha [2, 16] [%]	pest or weed control at 140 g/ha [2, 17] [%]	further results
Nc1c(F)c(-c2ccc(OC(F)F)c(F)c2)nc(C(=O)O)c1Cl [Compound 92, 4-amino-3-chloro-6-(4-(difluoromethoxy)-3-fluorophenyl)-5-fluoropicolinic acid]	45 to 59	0 to 29	0 to 29	60 to 74	60 to 74	0 to 29	0 to 29	30 to 44	45 to 59	60 to 74	60 to 74	147 to 149									pest or weed control at 70 g/ha ([1]; ABUTH: velvetleaf (Abutilon theophrasti), application rate 70 g ai/ha, read-out: Visual Growth Reduction (%) 14 Days After Application, ABUTH): 0 to 29%; pest or weed control at 140 g/ha ([1]; ABUTH: velvetleaf (Abutilon theophrasti), application rate 140 g ai/ha, read-out: Visual Growth Reduction (%) 14 Days After Application, ABUTH): 0 to 29%; pest or weed control at 70 g/ha ([1]; AMARE: redroot pigweed (Amaranthus retroflexus), application rate 70 g ai/ha, read-out: Visual Growth Reduction (%) 14 Days After Application, AMARE): 45 to 59%; pest or weed control at 140 g/ha ([1]; AMARE: redroot pigweed (Amaranthus retroflexus), application rate 140 g ai/ha, read-out: Visual Growth Reduction (%) 14 Days After Application, AMARE): 60 to 74%; pest or weed control at 70 g/ha ([1]; BRSNN: oilseed-rape, canola (Brassica napus), application rate 70 g ai/ha, read-out: Visual Growth Reduction (%) 14 Days After Application, BRSNN): 30 to 44%; pest or weed control at 140 g/ha ([1]; BRSNN: oilseed-rape, canola (Brassica napus), application rate 140 g ai/ha, read-out: Visual Growth Reduction (%) 14 Days After Application, BRSNN): 45 to 59%; pest or weed control at 70 g/ha ([1]; CHEAL: lambsquarters (Chenopodium album), application rate 70 g ai/ha, read-out: Visual Growth Reduction (%) 14 Days After Application, CHEAL): 85 to 94%; pest or weed control at 140 g/ha ([1]; CHEAL: lambsquarters (Chenopodium album), application rate 140 g ai/ha, read-out: Visual Growth Reduction (%) 14 Days After Application, CHEAL): 85 to 94%; pest or weed control at 70 g/ha ([1]; EPHHL: wild poinsettia (Euphorbia heterophylla), application rate 70 g ai/ha, read-out: Visual Growth Reduction (%) 14 Days After Application, EPHHL): 95 to 100%; pest or weed control at 140 g/ha ([1]; EPHHL: wild poinsettia (Euphorbia heterophylla), application rate 140 g ai/ha, read-out: Visual Growth Reduction (%) 14 Days After Application, EPHHL): 95 to 100%; pest or weed control at 70 g/ha ([1]; HELAN: sunflower (Helianthus annuus), application rate 70 g ai/ha, read-out: Visual Growth Reduction (%) 14 Days After Application, HELAN): 60 to 74%; pest or weed control at 140 g/ha ([1]; HELAN: sunflower (Helianthus annuus), application rate 140 g ai/ha, read-out: Visual Growth Reduction (%) 14 Days After Application, HELAN): 75 to 84%; pest or weed control at 70 g/ha ([1]; VIOTR: wild pansy (Viola tricolor), application rate 70 g ai/ha, read-out: Visual Growth Reduction (%) 14 Days After Application, VIOTR): 0 to 29%; pest or weed control at 140 g/ha ([1]; VIOTR: wild pansy (Viola tricolor), application rate 140 g ai/ha, read-out: Visual Growth Reduction (%) 14 Days After Application, VIOTR): 0 to 29%; pest or weed control at 70 g/ha [2, 3]: 30 to 44%
COC(=O)c1nc(-c2ccc(OC(F)(F)F)cc2)c(Cl)c(N)c1Cl [Compound 170]	0 to 29		0 to 29		0 to 29		0 to 29		0 to 29		0 to 29	178.9 to 180.2	0 to 29	0 to 29	60 to 74	0 to 29	85 to 94	0 to 29	0 to 29	0 to 29	pest or weed control at 140 g/ha [1, 10]: 0 to 29%
C#Cc1ccc(-c2nc(C(=O)OC)c(Cl)c(N)c2C)cc1F [Compound 151, methyl 4-amino-3-chloro-6-(4-ethynyl-3-fluorophenyl)-5-methylpicolinate]		0 to 29	75 to 84	0 to 29	0 to 29	0 to 29	0 to 29	60 to 74	60 to 74	60 to 74	75 to 84	130 to 132	95 to 100	85 to 94	95 to 100	0 to 29	85 to 94	0 to 29	45 to 59	60 to 74	pest or weed control at 70 g/ha ([1]; ABUTH: velvetleaf (Abutilon theophrasti), 70 g ai/ha, post-emergent, read-out: Visual Growth Reduction (%) 14 Days After Application ABUTH): 95 to 100%; pest or weed control at 70 g/ha ([1]; BRSNN: oilseed-rape, canola (Brassica napus), 70 g ai/ha, post-emergent, read-out: Visual Growth Reduction (%) 14 Days After Application BRSNN): 75 to 84%; pest or weed control at 70 g/ha ([1]; CHEAL: lambsquarters (Chenopodium album), 70 g ai/ha, post-emergent, read-out: Visual Growth Reduction (%) 14 Days After Application CHEAL): 95 to 100%; pest or weed control at 70 g/ha ([1]; EPHHL: wild poinsettia (Euphorbia heterophylla), 70 g ai/ha, post-emergent, read-out: Visual Growth Reduction (%) 14 Days After Application EPHHL): 0 to 29%; pest or weed control at 70 g/ha ([1]; HELAN: sunflower (Helianthus annuus), 70 g ai/ha, post-emergent, read-out: Visual Growth Reduction (%) 14 Days After Application HELAN): 85 to 94%; pest or weed control at 70 g/ha ([1]; VIOTR: wild pansy (Viola tricolor), 70 g ai/ha, post-emergent, read-out: Visual Growth Reduction (%) 14 Days After Application VIOTR): 0 to 29%; pest or weed control at 70 g/ha [2, 16]: 0 to 29%; pest or weed control at 70 g/ha [2, 17]: 0 to 29%; pest or weed control at 70 g/ha [2, 18]: 0 to 29%; pest or weed control at 140 g/ha [2, 18]: 0 to 29%
C#Cc1ccc(-c2cc(N)c(Cl)c(C(=O)O)n2)cc1 [Compound 48]	30 to 44		0 to 29		60 to 74		0 to 29		0 to 29		0 to 29	204.2 to 205.9	95 to 100	85 to 94	85 to 94	95 to 100	95 to 100	0 to 29	75 to 84	0 to 29	pest or weed control at 140 g/ha [1, 10]: 95 to 100%
